Experimental data as given in patent US8338422B2, “Indolin-2-ones and aza-indolin-2-ones” (Janssen Pharmaceutica NV, priority 2007, dated 2012).

Key:
PLK4 (h) = PLK4 (h) (Homo sapiens, UniProt O00444); assay: PLK-4 human kinase assay (SPA); assay type: biochemical; settings: read-out: PLK4 pIC50 (converted)
Method in brief: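 Radiometric readout: 33P-labelled peptide captured on streptavidin SPA beads after EDTA stop, imaged by Leadseeker. Reaction ran 60 min at room temperature in Hepes pH 8.0 buffer. It contained 1 μM ATP with 2 nM [γ-33P]ATP, 10 μM biotinylated peptide and PLK4 (h) at 19 μg/ml.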

AuroraB (h) = AuroraB (h) (Homo sapiens, UniProt Q96GD4); assay: Aurora-B human kinase assay (SPA); assay type: biochemical; settings: read-out: AuroraB pIC50 (converted)
Method in brief: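 Scintillation proximity assay: AuroraB (h) at 0.5 μg/ml with 3 μM biotinylated peptide, 0.5 μM ATP and 2.2 nM [γ-33P]ATP in 60 mM Hepes pH 7.5, 3 mM MgCl2, 3 mM MnCl2, 2 mM DTT. 60 min at room temperature, EDTA stop, streptavidin PVT beads read on Leadseeker.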

A2780 = assay: Cellular proliferation assay (Alamar blue), A2780; assay type: cell-based; settings: Homo sapiens, A2780, 72 h, A2780 cells, 72 hours with compound, 10% FCS, read-out: pIC50 A2780 (converted)
Method in brief: (§1)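 Proliferation was assessed over 72 h of compound treatment, following 24 h of seeding without compound, under 10% FCS, 37° C. and 5% CO2. Fluorescent resazurin product was measured and compared with control cells.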

SKOV3 = assay: Cellular proliferation assay (Alamar blue), SKOV3; assay type: cell-based; settings: Homo sapiens, SK-OV-3, SKOV3 cells, 72 hours with compound, 10% FCS, read-out: pIC50 SKOV3 (converted)
Experimental: (§2) […] functional properties of these compounds was tested in cellular proliferation assays on a panel of different cell lines in the presence of 10% FCS serum (37° C. and 5% (v/v) CO2). In a first step these cells were seeded and incubated for 24 hours in the absence of compound. In the second step the cells were incubated for 72 hours with the compounds to be tested for 72 hours. The viable cell number was finally assessed in a standard Alamar blue cell viability assay.
(§3) The viable cell number was assessed by incubation for either 4 h (HCT-116, H1299, H460) 6 h (SKOV3, HT29, U87-MG, Colo205) or 24 h (A2780, PC3, MDA-MB-231, A549, MCF-7) with Alamar blue (Resazurin 9 μg/ml, K-Ferrocyanide 90 μM K-Ferricyanide 90 μM) and the converted fluorescent product was quantified on a fluorescent plate readed (544 nm/590 nm). Effect of the compounds is calculated as of on control cells.

HT-29 = assay: Cellular proliferation assay (Alamar blue), HT-29; assay type: cell-based; settings: Homo sapiens, HT-29 cells, 72 hours with compound, 10% FCS, read-out: pIC50 HT-29 (converted)
Experimental: as §2, §3

HCT-116 = assay: Cellular proliferation assay (Alamar blue), HCT-116; assay type: cell-based; settings: Homo sapiens, HCT-116, 72 h, HCT-116 cells, 72 hours with compound, 10% FCS, read-out: pIC50 HCT-116 (converted)
Method in brief: as §1

Colo205 = assay: Cellular proliferation assay (Alamar blue), Colo205; assay type: cell-based; settings: Homo sapiens, COLO 205, Colo205 cells, 72 hours with compound, 10% FCS, read-out: pIC50 Colo205 (converted)
Experimental: as §2, §3

A549 = assay: Cellular proliferation assay (Alamar blue), A549; assay type: cell-based; settings: Homo sapiens, A549 cells, 72 hours with compound, 10% FCS, read-out: pIC50 A549 (converted)
Experimental: as §2, §3

H460 = assay: Cellular proliferation assay (Alamar blue), H460; assay type: cell-based; settings: Homo sapiens, NCI-H460, H460 cells, 72 hours with compound, 10% FCS, read-out: pIC50 H460 (converted)
Experimental: as §2, §3

MDA/MB231 = assay: Cellular proliferation assay (Alamar blue), MDA/MB231; assay type: cell-based; settings: Homo sapiens, MDA-MB-231, 72 h, MDA/MB231 cells, 72 hours with compound, 10% FCS, read-out: pIC50 MDA/MB231 (converted)
Method in brief: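 Cells were grown in 10% FCS at 37° C. with 5% CO2, plated 24 h without compound, then exposed to compound for 72 h. Viability was measured by Alamar blue (resazurin 9 μg/ml) fluorescence at 544 nm/590 nm after 4 h (H460) or 24 h (MDA-MB-231) dye incubation, relative to control cells.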

MCF-7 = assay: Cellular proliferation assay (Alamar blue), MCF-7; assay type: cell-based; settings: Homo sapiens, MCF7, MCF-7 cells, 72 hours with compound, 10% FCS, read-out: pIC50 MCF-7 (converted)
Experimental: as §2, §3

DU-145 = assay: Cellular proliferation assay (Alamar blue), DU-145; assay type: cell-based; settings: Homo sapiens, DU-145 cells, 72 hours with compound, 10% FCS, read-out: pIC50 DU-145 (converted)
Experimental: as §2, §3

A431 = assay: Cellular proliferation assay (Alamar blue), A431; assay type: cell-based; settings: Homo sapiens, A-431, A431 cells, 72 hours with compound, 10% FCS, read-out: pIC50 A431 (converted)
Experimental: as §2, §3

U87MG = assay: Cellular proliferation assay (Alamar blue), U87MG; assay type: cell-based; settings: Homo sapiens, U-87 MG, 72 h, U87MG cells, 72 hours with compound, 10% FCS, read-out: pIC50 U87MG (converted)
Method in brief: as §1

PC-3 = assay: Cellular proliferation assay (Alamar blue), PC-3; assay type: cell-based; settings: Homo sapiens, PC-3, 72 h, PC-3 cells, 72 hours with compound, 10% FCS, read-out: pIC50 PC-3 (converted)
Method in brief: as §1

SK-N-SH = assay: Cellular proliferation assay (Alamar blue), SK-N-SH; assay type: cell-based; settings: Homo sapiens, SK-N-SH cells, 72 hours with compound, 10% FCS, read-out: pIC50 SK-N-SH (converted)
Experimental: as §2, §3

H1299 = assay: Cellular proliferation assay (Alamar blue), H1299; assay type: cell-based; settings: Homo sapiens, NCI-H1299, 72 h, H1299 cells, 72 hours with compound, 10% FCS, read-out: pIC50 H1299 (converted)
Method in brief: as §1

GSK3β (h) = GSK3β (h) (Homo sapiens, UniProt P49841); assay: GSK-3β human kinase assay (SPA); assay type: biochemical; settings: read-out: GSK3B pIC50 (converted)
Method in brief: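 Radiometric SPA read-out: after EDTA stop, biotinylated 33P-labelled peptide bound streptavidin PVT beads and was imaged on Leadseeker. Reaction: 60 min, room temperature, GSK3β (h) at 1 μg/ml, 1 μM substrate peptide, 1 μM ATP with 2 nM [γ-33P]ATP, Tris pH 7.4/MgCl2/DTT buffer.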

CDK1/CyclinB (h) = CDK1/CyclinB (h) (Homo sapiens, UniProt P06493); assay: CDK1/CyclinB human kinase assay (FRET); assay type: biochemical; settings: read-out: CDK1 pIC50 (converted)
Method in brief: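 Z'-LYTE FRET format: 0.2 μg/ml enzyme with 2 μM Ser/Thr peptide 12 and 10 μM ATP in 50 mM Hepes pH 7.5, 10 mM MgCl2, 1 mM EGTA, 0.01% Brij-35, 60 min at room temperature. Protease development 60 min; coumarin/fluorescein emission ratio (460/538 nm, excitation 390 nm) reports phosphorylation.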

AuroraB (h), sequence (Q96GD4 whole entry): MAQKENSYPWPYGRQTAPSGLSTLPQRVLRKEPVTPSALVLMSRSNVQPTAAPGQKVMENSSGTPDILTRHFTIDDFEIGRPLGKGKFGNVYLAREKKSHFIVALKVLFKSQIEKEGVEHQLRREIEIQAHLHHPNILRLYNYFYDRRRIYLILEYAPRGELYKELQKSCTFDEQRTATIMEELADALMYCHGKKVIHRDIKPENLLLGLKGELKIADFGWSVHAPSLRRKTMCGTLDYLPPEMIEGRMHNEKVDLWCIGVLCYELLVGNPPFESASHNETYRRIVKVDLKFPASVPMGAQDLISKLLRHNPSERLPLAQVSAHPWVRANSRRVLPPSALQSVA
PLK4 (h), sequence (O00444 whole entry): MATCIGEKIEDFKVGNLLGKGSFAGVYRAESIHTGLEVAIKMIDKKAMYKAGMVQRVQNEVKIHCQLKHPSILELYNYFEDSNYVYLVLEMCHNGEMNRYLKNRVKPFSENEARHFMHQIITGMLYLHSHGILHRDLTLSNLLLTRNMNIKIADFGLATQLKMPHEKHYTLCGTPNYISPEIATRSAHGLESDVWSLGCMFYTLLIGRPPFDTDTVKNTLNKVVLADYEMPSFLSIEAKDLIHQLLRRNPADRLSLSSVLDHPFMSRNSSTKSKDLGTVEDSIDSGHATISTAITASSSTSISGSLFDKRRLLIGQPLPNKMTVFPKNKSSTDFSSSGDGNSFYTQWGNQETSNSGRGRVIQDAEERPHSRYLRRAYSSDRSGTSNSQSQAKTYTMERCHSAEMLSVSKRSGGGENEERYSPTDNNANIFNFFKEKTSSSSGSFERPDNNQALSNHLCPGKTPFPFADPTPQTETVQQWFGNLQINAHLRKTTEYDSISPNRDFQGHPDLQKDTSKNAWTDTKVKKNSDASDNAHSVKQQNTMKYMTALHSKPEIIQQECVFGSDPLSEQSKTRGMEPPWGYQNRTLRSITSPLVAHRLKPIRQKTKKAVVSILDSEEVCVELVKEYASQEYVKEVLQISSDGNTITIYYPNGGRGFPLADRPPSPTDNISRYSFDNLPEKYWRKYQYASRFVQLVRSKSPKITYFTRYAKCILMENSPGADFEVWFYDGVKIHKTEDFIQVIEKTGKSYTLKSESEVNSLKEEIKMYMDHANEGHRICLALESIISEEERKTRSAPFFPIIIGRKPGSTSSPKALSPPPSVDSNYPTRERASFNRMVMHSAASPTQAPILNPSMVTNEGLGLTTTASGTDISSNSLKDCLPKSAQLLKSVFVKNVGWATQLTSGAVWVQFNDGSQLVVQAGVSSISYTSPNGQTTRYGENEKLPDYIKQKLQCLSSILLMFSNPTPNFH
CDK1/CyclinB (h), sequence (P06493 whole entry): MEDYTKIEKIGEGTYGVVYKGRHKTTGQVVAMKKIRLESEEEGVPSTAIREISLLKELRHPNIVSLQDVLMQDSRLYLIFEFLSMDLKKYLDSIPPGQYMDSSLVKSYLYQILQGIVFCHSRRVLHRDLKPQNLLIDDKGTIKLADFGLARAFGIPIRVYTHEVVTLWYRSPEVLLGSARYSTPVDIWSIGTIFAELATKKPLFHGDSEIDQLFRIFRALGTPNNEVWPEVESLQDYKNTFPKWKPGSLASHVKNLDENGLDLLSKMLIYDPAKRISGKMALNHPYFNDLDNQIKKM
CDK1/CyclinB (h), sequence (P14635 whole entry partner): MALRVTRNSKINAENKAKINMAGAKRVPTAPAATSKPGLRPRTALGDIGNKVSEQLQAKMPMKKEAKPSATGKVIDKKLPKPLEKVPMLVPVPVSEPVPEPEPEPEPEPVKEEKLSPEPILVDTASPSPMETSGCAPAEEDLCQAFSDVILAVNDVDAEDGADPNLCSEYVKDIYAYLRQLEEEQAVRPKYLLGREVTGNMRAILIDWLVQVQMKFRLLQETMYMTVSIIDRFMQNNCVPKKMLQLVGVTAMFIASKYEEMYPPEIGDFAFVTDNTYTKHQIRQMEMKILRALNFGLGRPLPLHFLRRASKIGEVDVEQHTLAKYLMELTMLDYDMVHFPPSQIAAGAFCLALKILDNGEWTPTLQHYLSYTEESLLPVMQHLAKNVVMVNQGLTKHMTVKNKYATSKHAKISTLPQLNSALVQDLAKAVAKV
GSK3β (h), sequence (P49841 whole entry): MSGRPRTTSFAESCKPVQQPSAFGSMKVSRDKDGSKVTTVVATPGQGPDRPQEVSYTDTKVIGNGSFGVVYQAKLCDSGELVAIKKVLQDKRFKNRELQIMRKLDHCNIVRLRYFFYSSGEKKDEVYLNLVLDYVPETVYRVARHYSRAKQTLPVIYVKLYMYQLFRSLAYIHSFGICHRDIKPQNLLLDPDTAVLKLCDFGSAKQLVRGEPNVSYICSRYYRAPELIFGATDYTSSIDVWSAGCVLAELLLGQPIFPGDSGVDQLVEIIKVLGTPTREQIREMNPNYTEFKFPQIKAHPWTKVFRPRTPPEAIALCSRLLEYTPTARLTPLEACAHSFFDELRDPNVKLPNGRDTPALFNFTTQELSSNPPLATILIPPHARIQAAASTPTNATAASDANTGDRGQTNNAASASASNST

Row | SMILES | IC50 (PLK4 (h)) [µM] | IC50 (SKOV3) [µM] | IC50 (HT-29) [µM] | IC50 (HCT-116) [µM] | IC50 (Colo205) [µM] | IC50 (A549) [µM] | IC50 (H460) [µM] | IC50 (MCF-7) [µM] | IC50 (DU-145) [µM] | IC50 (A431) [µM] | IC50 (PC-3) [µM] | IC50 (SK-N-SH) [µM] | IC50 (H1299) [µM] | IC50 (AuroraB (h)) [µM] | IC50 (A2780) [µM] | IC50 (MDA/MB231) [µM] | IC50 (U87MG) [µM] | IC50 (GSK3β (h)) [µM] | IC50 (CDK1/CyclinB (h)) [µM]
1 | CN1CCCCCC(=O)N2CCN(CC2)c2ncnc3c2/C(=C/Nc2cccc(c2)C1)C(=O)N3 [Compound 24] | 1.51 | > 10 | > 10 | > 10 | > 10 | > 10 | > 10 | > 10 | > 10 | > 10 | > 10 | > 10 | – | > 10 | > 10 | > 10 | > 10 | – | –
2 | CC(C)N1CCCCCC(=O)N2CCN(CC2)c2ncnc3c2/C(=C/Nc2ccc(F)c(c2)C1)C(=O)N3 [Compound 28] | > 10 | > 10 | > 10 | – | > 10 | > 10 | > 10 | > 10 | > 10 | > 10 | > 10 | > 10 | – | > 10 | – | – | – | > 10 | > 10
3 | COc1ccc2cc1OCCCC(=O)N(C(C)C)CCN(C)c1ncnc3c1/C(=C/N2)C(=O)N3 [Compound 32] | 1.05 | 3.31 | 2.51 | – | 2.04 | 2.14 | 2.34 | 1.58 | 3.98 | 1.32 | 1 | 1.62 | – | – | – | – | – | – | –
4 | COc1ccc2cc1OCCCC(=O)N(C)CCN(C)C1CCN(CC1)c1ncnc3c1/C(=C/N2)C(=O)N3 [Compound 34] | > 10 | > 10 | ~8.32 | – | > 10 | > 10 | – | > 10 | > 10 | – | – | 5.25 | – | – | – | – | – | – | –

Continued, in another order:

Row | IC50 (PLK4 (h)) [µM] | IC50 (SKOV3) [µM] | IC50 (HT-29) [µM] | IC50 (HCT-116) [µM] | IC50 (Colo205) [µM] | IC50 (A549) [µM] | IC50 (H460) [µM] | IC50 (MCF-7) [µM] | IC50 (DU-145) [µM] | IC50 (A431) [µM] | IC50 (PC-3) [µM] | IC50 (SK-N-SH) [µM] | IC50 (H1299) [µM] | SMILES | IC50 (AuroraB (h)) [µM] | IC50 (A2780) [µM] | IC50 (MDA/MB231) [µM] | IC50 (U87MG) [µM] | IC50 (GSK3β (h)) [µM] | IC50 (CDK1/CyclinB (h)) [µM]
5 | 1.62 | 4.68 | > 10 | > 10 | > 10 | 3.47 | > 10 | 8.13 | > 10 | > 10 | 10.7 | 3.31 | – | COc1ccc2cc1OCCCC(=O)N1CCN(CC1)c1ncnc3c1/C(=C/N2)C(=O)N3 [Compound 17] | > 10 | > 10 | > 10 | 7.76 | – | –
6 | – | > 10 | > 10 | > 10 | 7.76 | > 10 | > 10 | > 10 | > 10 | > 10 | > 10 | 6.61 | > 10 | O=C1Nc2ncnc3c2/C1=C/Nc1ccc(c(Cl)c1)OCCCCCCC(=O)N1CCN3CC1 [Compound 20] | > 10 | – | > 10 | – | – | –
